Test results reported in US11434468B2, “Lactic acid bacteria and its applications” (Bened Biomedical Co., Ltd., priority 2017, dated 2022).

Assays:
[1] = tested on: rats subjected to chronic mild stress; experiment: Open field test after 4 weeks of chronic mild stress protocol; assay type: in vivo, rat; settings: 4 weeks chronic mild stress, daily oral gavage, 5 min open field test
Method: Open field test was performed using an opaque rectangular box with the dimension of 32 cm high, 38 cm width and 52 cm long was placed in the center of the experiment room supplied with bright lighting. A video camera was set up above the rectangular box to capture the behavior of the animals.
Each animal was gently transferred from its cage into the OFT and allowed to freely explore inside the box. […] The box was cleaned with 70% ethanol during the interval of each test throughout the assessment. The duration of exploratory and immobility was expressed as mean±standard of mean from six replicates (n=6) per group.
The open field test is broadly used to assess exploratory behavior and validated for use in the measurement of anxiety-related behaviors. The procedure consists of subjecting the rat, to an unknown environment from which escape is prevented by surrounding walls. […] Increased exploratory behaviours in rats indicate less anxiety states, whereas immobility indicate anxiety behaviour in rats.

[2] = tested on: rats subjected to chronic mild stress; experiment: Forced swim test after 4 weeks of chronic mild stress protocol; assay type: in vivo, rat; settings: 4 weeks chronic mild stress, daily oral gavage, 5 min forced swim test, comparison between groups, P<0.05, FIG. 3
Method: Forced swim test (FST) was performed in a black opaque swim cylinder with a depth of 68 cm and diameter of 40 cm. The cylinder was filled up with water to the depth of 30 cm, leaving some space on top to prevent the escape of rat. A video camera was set up above the swim cylinder to capture and record the animals' behavior during the test.
Each animal was gently placed into the water in the swim cylinder and was given 5 minutes to swim freely in the swim cylinder. The behavior of the animals were observed and recorded throughout the test. All rats were dried thoroughly with clean towel after the FST before returning them to their respective cage throughout the assessment. The duration of immobility of the rats were timed and then expressed as mean±standard of mean from six replicates (n=6) per group.
Forced swim test is one of the most commonly used assays for the study of depressive-like behavior in rodents. […] In forced swim test, a swimming cylinder filled with 30 cm depth of water. Depression assessment of rats was performed by scoring predominant behavior in each 5-s period of the 300-s test.

[3] = tested on: rats subjected to chronic mild stress; experiment: Elevated plus maze after 4 weeks of chronic mild stress protocol; assay type: in vivo, rat; settings: 4 weeks chronic mild stress, daily oral gavage (PS150 1×10^9 cfu; protein 300 mg/kg; alprazolam), 5 min, comparison between groups
Text: The elevated plus maze (EPM) consists of four arms, two open arms without walls and two enclosed walls of 40 cm high, 50 cm long and 15 cm wide. Each arm of the maze is attached with firm metallic legs with 70 cm high. The EPM was placed in a room with bright lighting, close to the center of the room. The levels of illumination of both open and closed arms were maintained similar. A video camera was set up above the elevated plus maze to capture and record the animal's behavior.
Animal was taken out from its cage and placed at the middle (ie. the junction of the open and closed arm) of EPM, facing away from the maze towards the wall. Each animal was given 5 minutes to explore freely on the EPM. Throughout the assessment, the EPM was cleaned and dried with 70% ethanol before accessing the next animal. The number of open arm entries and time spent in open arms were observed, timed and recorded. The number of entries to open arms and the duration spent on open arms were recorded and expressed as mean±standard of means from six replicates (n=6) per group.
Analyses on rat behavior were carried out after 4 weeks of chronic mild stress protocol. […] Rats were placed at the junction of the four arms of the maze, facing an open arm, and entries/duration in each arm was recorded for 5 min. […]

[4] = tested on: rats subjected to chronic mild stress; experiment: Morris water maze after chronic mild stress; assay type: in vivo, rat; settings: 4 weeks chronic mild stress, daily oral gavage, comparison between groups, P<0.05, FIG. 6(a)
Method: The diameter of the MWM used was 210 cm, where the height of the pool was 51 cm with non-reflective interior surfaces. The maze was placed in a room with a video camera set up on top of the maze to capture and record the animal's behavior. The water maze was filled up with water of temperature ranging within 19-22° C. to avoid the rats from getting temperature shock (hypothermia or hyperthermia). Then, a colorless and transparent circular goal or platform (designated as escape platform) with the diameter of 10-12 cm was submerged 1-2 cm below the water surface and ensured with stability to avoid tipping of animal when the rats climb on it.
The start locations of the MWM was designated at East, West and South East, while the escape platform is submerge at North East. A consecutive four daily trials were performed using these three start locations. Briefly, the animals were gently placed on the first start locations and allowed to swim freely to search for the escape platform. A maximum of two minutes was given for each animal to perform the search for the escape platform. All rats were dried thoroughly with clean towel after the Morris test before returning them to their respective cage. Time taken by each animal to locate the escape, escape latency (seconds) is expressed as mean±standard of mean from six replicates (n=6) per group. […]

[5] = tested on: SH-SY5Y neuroblastoma cells; experiment: Cell viability (MTT) upon dexamethasone-induced neurotoxicity; assay type: cell-based, human; settings: dexamethasone 25 μM, MTT 48 h after treatment, unfermented MRS control = 100% viability, FIG. 11
Method: Neuroblastoma cell line, SH-SY5Y cells were purchased from Korea Cell Line Bank (KCLB; Seoul, Korea). Cells were maintained in high glucose Dulbecco's Modified Eagle Medium (DMEM; Difco, Detroit, Mich., USA) supplemented with 10% heat-inactivated fetal bovine serum (FBS; Gibco Life Technologies Inc, Grand Island, N.Y., USA), 100 U/mL penicillin/streptomycin (Gibco Life Technologies Inc, Grand Island, N.Y., USA). Cultures were seeded into flasks containing supplemented medium and maintained at 37° C. in a humidified atmosphere of 5% CO2 and 95% air.
The SH-SY5Y cells were seeded into 96-well culture plates at a seeding density 1×10^5 cells per well. All cells in this study were maintained in 10% serum medium until the dexamethasone (Dex; Sigma-Aldrich, Steinheim, Germany) treatment. Cells were incubated for 24 h to allow attachment to the culture plate before treatment. […] The 3-(4, 5 dimethylthiazol-2-yl)-2,5-diphenyl-tetrazolium bromide (MTT; Sigma-Aldrich, Steinheim, Germany) reduction was analyzed 48 h after treatment.
Cell viability was measured by quantitative colorimetric assay with MTT, as described previously by Denizot and Lang (J Immunol Methods. 1986 May 22; 89(2):271-7.). […] Colorimetric determination of MTT reduction was measured at 570 nm using microplate reader (Thermo Scientific, Waltham, Mass., US). […]

## Cc1nnc2n1-c1ccc(Cl)cc1C(c1ccccc1)=NC2 [alprazolam]
[1]; between naïve control, positive control, PS150 and protein fraction groups, FIG. 2
  Duration of immobility: insignificantly different
[1]; comparison between groups, P<0.05, FIG. 2
  Duration of exploratory activity: insignificantly different
[2]
  Time spent immobile: insignificantly different
[3]; P<0.05, FIG. 1(a)
  Number of entries into the open arms: insignificant differences
[3]; P<0.05, FIG. 1(b)
  Ratio of time spent on the closed arms to the time spent on the open arms: insignificant differences
[4]
  Escape latency: Insignificant difference

## fraction A: HPLC-purified fraction of the PS150 protein fraction, approximately 55 kDa, identified as elongation factor Tu (SEQ ID NO:4)
[5]
  Neuroprotective effect (cell viability) against dexamethasone: most prevalent neuroprotective effect
